Three molecules from ChEMBL document CHEMBL1138875, “Design and synthesis of substituted pyridine derivatives as HIF-1alpha prolyl hydroxylase inhibitors” (Bioorg Med Chem Lett, 2006) can be followed below.

A word on the IC50: it is the point on the concentration scale where inhibition reaches its midpoint.

Egl nine homolog 1, sequence (Q9GZT9 whole entry): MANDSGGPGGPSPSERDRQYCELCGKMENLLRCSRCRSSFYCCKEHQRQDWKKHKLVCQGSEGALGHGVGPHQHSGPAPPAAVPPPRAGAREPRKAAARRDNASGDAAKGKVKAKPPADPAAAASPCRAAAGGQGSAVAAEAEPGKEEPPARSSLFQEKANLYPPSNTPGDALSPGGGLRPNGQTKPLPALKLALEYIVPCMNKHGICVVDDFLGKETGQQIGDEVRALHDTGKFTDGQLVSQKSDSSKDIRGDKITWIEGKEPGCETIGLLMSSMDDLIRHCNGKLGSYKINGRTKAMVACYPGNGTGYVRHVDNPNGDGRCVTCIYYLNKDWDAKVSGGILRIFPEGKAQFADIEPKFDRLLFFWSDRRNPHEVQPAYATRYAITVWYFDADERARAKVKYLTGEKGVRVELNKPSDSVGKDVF

This assay addresses Egl nine homolog 1 (Homo sapiens, UniProt Q9GZT9). The assay is described as follows: Inhibition of EGLN1.
As to `O=C(O)CNC(=O)c1cc(-c2ccc(Cl)cc2)ccn1`, the half-inhibitory concentration (IC50) was more than 100 µM.
To `O=C(O)CNC(=O)c1ccccn1` belongs more than 100 µM.
As for `O=C(O)CNC(=O)c1ccc(-c2cccc(Cl)c2)cn1`, the IC50 is more than 100 µM.
